Reference: patent US9346809B2 (LEO PHARMA A/S, priority 2009, dated 2016)

Experiments:
Type in all cases: biochemical
[1] = target: T1, JAK1 (aa 850-1154, catalytic domain, GST-tag) (Homo sapiens, UniProt P23458); test: JAK kinase assay (HTRF, phosphorylation of TK substrate-biotin), JAK1; conditions: HTRF assay, ATP at Km (7 μM); read-out: JAK1 kinase inhibitory activity (EC50 indicator)
T1 construct: JAK1 (aa 850-1154) and TYK2 (aa 871-1187) are expressed with an N-terminally fused GST-tag; GST (N); purchased Carna Biosciences, Inc; host or cells: baculovirus expression system
Outline: (§1)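 Baculovirus-expressed catalytic domains phosphorylated 1 μM TK substrate-biotin in 50 mM Hepes pH 7.0 with ATP at Km (JAK1 7 μM, JAK2 4 μM, JAK3 2 μM, TYK2 13 μM) for 20-30 min at RT. EDTA/KF stop, streptavidin-XL665 plus cryptate antibody overnight; HTRF signal gave EC50.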

[2] = target: T2, JAK2 (catalytic domain, His-tag) (Homo sapiens, UniProt O60674); test: JAK kinase assay (HTRF, phosphorylation of TK substrate-biotin), JAK2; conditions: HTRF assay, ATP at Km (4 μM); read-out: JAK2 kinase inhibitory activity (EC50 indicator)
T2 construct: All four purified enzymes contain only the catalytic domain; His (N); purchased Carna Biosciences, Inc; host or cells: baculovirus expression system
Outline: as §1

[3] = target: T3, JAK3 (catalytic domain, His-tag) (Homo sapiens, UniProt P52333); test: JAK kinase assay (HTRF, phosphorylation of TK substrate-biotin), JAK3; conditions: HTRF assay, ATP at Km (2 μM); read-out: JAK3 kinase inhibitory activity (EC50 indicator)
T3 construct: All four purified enzymes contain only the catalytic domain; His (N); purchased Carna Biosciences, Inc; host or cells: baculovirus expression system
Outline: as §1

[4] = target: T4, TYK2 (aa 871-1187, catalytic domain, GST-tag) (Homo sapiens, UniProt P29597); test: JAK kinase assay (HTRF, phosphorylation of TK substrate-biotin), TYK2; conditions: HTRF assay, ATP at Km (13 μM); read-out: TYK2 kinase inhibitory activity (EC50 indicator)
T4 construct: JAK1 (aa 850-1154) and TYK2 (aa 871-1187) are expressed with an N-terminally fused GST-tag; GST (N); purchased Carna Biosciences, Inc; host or cells: baculovirus expression system
T4 sequence (P29597 871-1187): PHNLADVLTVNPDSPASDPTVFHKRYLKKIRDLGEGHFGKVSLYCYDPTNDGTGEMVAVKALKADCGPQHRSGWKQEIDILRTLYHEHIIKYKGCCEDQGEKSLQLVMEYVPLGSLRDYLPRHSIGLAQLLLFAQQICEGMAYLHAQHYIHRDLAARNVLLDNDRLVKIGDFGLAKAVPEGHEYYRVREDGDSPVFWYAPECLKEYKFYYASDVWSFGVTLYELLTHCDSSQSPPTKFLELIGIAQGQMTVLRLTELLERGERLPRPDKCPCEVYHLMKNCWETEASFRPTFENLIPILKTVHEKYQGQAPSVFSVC
Outline: as §1

T3 sequence (P52333 822-1111 limits assumed): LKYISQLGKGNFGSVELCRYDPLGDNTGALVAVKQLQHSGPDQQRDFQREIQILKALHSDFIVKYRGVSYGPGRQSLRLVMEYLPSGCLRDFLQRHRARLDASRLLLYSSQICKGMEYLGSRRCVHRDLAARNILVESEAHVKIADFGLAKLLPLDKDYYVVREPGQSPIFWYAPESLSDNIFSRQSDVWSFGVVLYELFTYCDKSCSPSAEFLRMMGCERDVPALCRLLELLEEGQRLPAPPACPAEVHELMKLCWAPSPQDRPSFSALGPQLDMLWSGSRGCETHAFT
T2 sequence (O60674 849-1124 limits assumed): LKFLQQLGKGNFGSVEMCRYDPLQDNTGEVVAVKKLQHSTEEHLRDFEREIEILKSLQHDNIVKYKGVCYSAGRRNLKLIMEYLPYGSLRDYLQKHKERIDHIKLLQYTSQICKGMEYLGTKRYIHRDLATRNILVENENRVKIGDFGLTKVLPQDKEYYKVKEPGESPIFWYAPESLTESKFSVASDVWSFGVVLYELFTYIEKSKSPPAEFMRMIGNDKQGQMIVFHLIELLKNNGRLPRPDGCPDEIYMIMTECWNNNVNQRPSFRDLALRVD
T1 sequence (P23458 850-1154): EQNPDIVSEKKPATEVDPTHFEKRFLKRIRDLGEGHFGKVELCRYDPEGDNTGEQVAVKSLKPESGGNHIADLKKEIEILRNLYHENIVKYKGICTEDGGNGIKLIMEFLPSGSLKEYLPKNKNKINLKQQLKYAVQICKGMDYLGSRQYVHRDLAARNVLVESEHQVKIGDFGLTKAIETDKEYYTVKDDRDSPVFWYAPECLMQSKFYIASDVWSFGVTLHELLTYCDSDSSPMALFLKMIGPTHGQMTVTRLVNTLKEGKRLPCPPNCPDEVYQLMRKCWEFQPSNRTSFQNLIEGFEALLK

| SMILES | EC50 [1] | EC50 [2] | EC50 [3] | EC50 [4] |
| --- | --- | --- | --- | --- |
| O=C(c1cccc(OC(F)(F)F)c1)N1CCN(c2ccnc3[nH]ccc23)CC12CC2 [Example 229, [7-(1H-Pyrrolo[2,3-b]pyridin-4-yl)-4,7-diaza-spiro[2.5]oct-4-yl]-(3-trifluoromethoxy-phenyl)-methanone] | 100 to 500 nM | 100 to 500 nM | > 500 nM | > 500 nM |
| N#CCc1ccc(C(=O)N2CCN(c3ccnc4[nH]ccc34)CC23CC3)cc1 [Example 230, {4-[7-(1H-Pyrrolo[2,3-b]pyridin-4-yl)-4,7-diaza-spiro[2.5]octane-4-carbonyl]-phenyl}-acetonitrile] | 100 to 500 nM | < 100 nM | 100 to 500 nM | > 500 nM |
| Cc1ccc(C(=O)N2CCN(c3ccnc4[nH]ccc34)CC23CC3)s1 [Example 231, (5-Methyl-thiophen-2-yl)-[7-(1H-pyrrolo[2,3-b]pyridin-4-yl)-4,7-diaza-spiro[2.5]oct-4-yl]-methanone] | < 100 nM | < 100 nM | 100 to 500 nM | 100 to 500 nM |
| O=C(c1csc2ccccc12)N1CCN(c2ccnc3[nH]ccc23)CC12CC2 [Example 233, Benzo[b]thiophen-3-yl-[7-(1H-pyrrolo[2,3-b]pyridin-4-yl)-4,7-diaza-spiro[2.5]oct-4-yl]-methanone] | 100 to 500 nM | < 100 nM | > 500 nM | > 500 nM |
| Cc1ccc2sc(C(=O)N3CCN(c4ccnc5[nH]ccc45)CC34CC4)cc2c1 [Example 234, (5-Methyl-benzo[b]thiophen-2-yl)-[7-(1H-pyrrolo[2,3-b]pyridin-4-yl)-4,7-diaza-spiro[2.5]oct-4-yl]-methanone] | 100 to 500 nM | 100 to 500 nM | > 500 nM | > 500 nM |
| N#Cc1ccccc1C(=O)N1CCN(c2ccnc3[nH]ccc23)CC12CC2 [Example 235, 2-[7-(1H-Pyrrolo[2,3-b]pyridin-4-yl)-4,7-diaza-spiro[2.5]octane-4-carbonyl]-benzonitrile] | 100 to 500 nM | < 100 nM | > 500 nM | > 500 nM |
| CC(C)(C#N)C(=O)N1[C@@H]2CC[C@@H]1CN(c1ncnc3[nH]ccc13)C2 [Example 239, 2,2-Dimethyl-3-oxo-3-[3-(7H-pyrrolo[2,3-d]pyrimidin-4-yl)-3,8-diaza-bicyclo[3.2.1]oct-8-yl]-propionitrile] | 100 to 500 nM | 100 to 500 nM | 100 to 500 nM | > 500 nM |
| O=C(c1ccccn1)N1[C@@H]2CC[C@@H]1CN(c1ncnc3[nH]ccc13)C2 [Example 241, Pyridin-2-yl-[3-(7H-pyrrolo[2,3-d]pyrimidin-4-yl)-3,8-diaza-bicyclo[3.2.1]oct-8-yl]-methanone] | < 100 nM | < 100 nM | 100 to 500 nM | > 500 nM |
| O=C(c1ccncc1)N1[C@@H]2CC[C@@H]1CN(c1ncnc3[nH]ccc13)C2 [Example 242, Pyridin-4-yl-[3-(7H-pyrrolo[2,3-d]pyrimidin-4-yl)-3,8-diaza-bicyclo[3.2.1]oct-8-yl]-methanone] | < 100 nM | < 100 nM | 100 to 500 nM | > 500 nM |
| O=C(c1cccc(OC(F)(F)F)c1)N1[C@@H]2CC[C@@H]1CN(c1ncnc3[nH]ccc13)C2 [Example 244, [3-(7H-Pyrrolo[2,3-d]pyrimidin-4-yl)-3,8-diaza-bicyclo[3.2.1]oct-8-yl]-(3-trifluoromethoxy-phenyl)-methanone] | < 100 nM | < 100 nM | < 100 nM | > 500 nM |
| Cc1c(C(=O)N2[C@H]3CC[C@H]2CN(c2ncnc4[nH]ccc24)C3)sc2ccccc12 [Example 245, (3-Methyl-benzo[b]thiophen-2-yl)-[3-(7H-pyrrolo[2,3-d]pyrimidin-4-yl)-3,8-diaza-bicyclo[3.2.1]oct-8-yl]-methanone] | < 100 nM | < 100 nM | < 100 nM | > 500 nM |
| O=C(c1csc2ccccc12)N1[C@H]2CC[C@H]1CN(c1ncnc3[nH]ccc13)C2 [Example 246, Benzo[b]thiophen-3-yl-[3-(7H-pyrrolo[2,3-d]pyrimidin-4-yl)-3,8-diaza-bicyclo[3.2.1]oct-8-yl]-methanone] | < 100 nM | < 100 nM | < 100 nM | 100 to 500 nM |
| Cc1ccc2sc(C(=O)N3[C@@H]4CC[C@H]3CN(c3ncnc5[nH]ccc35)C4)cc2c1 [Example 247, (5-Methyl-benzo[b]thiophen-2-yl)-[3-(7H-pyrrolo[2,3-d]pyrimidin-4-yl)-3,8-diaza-bicyclo[3.2.1]oct-8-yl]-methanone] | < 100 nM | < 100 nM | 100 to 500 nM | > 500 nM |
| N#CC1(C(=O)N2[C@@H]3CC[C@@H]2CN(c2ncnc4[nH]ccc24)C3)CCOCC1 [Example 248, 4-[3-(7H-Pyrrolo[2,3-d]pyrimidin-4-yl)-3,8-diaza-bicyclo[3.2.1]octane-8-carbonyl]-tetrahydro-pyran-4-carbonitrile] | 100 to 500 nM | < 100 nM | 100 to 500 nM | > 500 nM |
| N#Cc1ccccc1C(=O)N1[C@@H]2CC[C@@H]1CN(c1ncnc3[nH]ccc13)C2 [Example 249, 2-[3-(7H-Pyrrolo[2,3-d]pyrimidin-4-yl)-3,8-diaza-bicyclo[3.2.1]octane-8-carbonyl]-benzonitrile] | 100 to 500 nM | < 100 nM | 100 to 500 nM | > 500 nM |
| N#Cc1ccccc1CC(=O)N1[C@@H]2CC[C@@H]1CN(c1ncnc3[nH]ccc13)C2 [Example 250, 2-{2-Oxo-2-[3-(7H-pyrrolo[2,3-d]pyrimidin-4-yl)-3,8-diaza-bicyclo[3.2.1]oct-8-yl]-ethyl}-benzonitrile] | 100 to 500 nM | 100 to 500 nM | 100 to 500 nM | > 500 nM |

The remaining lines, values ahead:

| EC50 [1] | EC50 [2] | EC50 [3] | EC50 [4] | SMILES |
| --- | --- | --- | --- | --- |
| < 100 nM | < 100 nM | > 500 nM | 100 to 500 nM | Cc1c(C(=O)N2CCN(c3ccnc4[nH]ccc34)CC23CC3)sc2ccccc12 [Example 232, (3-Methyl-benzo[b]thiophen-2-yl)-[7-(1H-pyrrolo[2,3-b]pyridin-4-yl)-4,7-diaza-spiro[2.5]oct-4-yl]-methanone] |
| > 500 nM | > 500 nM | > 500 nM | > 500 nM | N#Cc1cccc(CC(=O)N2CCN(c3ccnc4[nH]ccc34)CC23CC3)c1 [Example 236, 3-{2-Oxo-2-[7-(1H-pyrrolo[2,3-b]pyridin-4-yl)-4,7-diaza-spiro[2.5]oct-4-yl]-ethyl}-benzonitrile] |
| > 500 nM | 100 to 500 nM | 100 to 500 nM | > 500 nM | N#Cc1ccccc1CC(=O)N1CCN(c2ccnc3[nH]ccc23)CC12CC2 [Example 237, 2-{2-Oxo-2-[7-(1H-pyrrolo[2,3-b]pyridin-4-yl)-4,7-diaza-spiro[2.5]oct-4-yl]-ethyl}-benzonitrile] |
| < 100 nM | 100 to 500 nM | > 500 nM | > 500 nM | O=C(c1ccc(OC(F)(F)F)cc1)N1CCN(c2ccnc3[nH]ccc23)CC12CC2 [Example 238, [7-(1H-Pyrrolo[2,3-b]pyridin-4-yl)-4,7-diaza-spiro[2.5]oct-4-yl]-(4-trifluoromethoxy-phenyl)-methanone] |
| < 100 nM | < 100 nM | 100 to 500 nM | > 500 nM | O=C(c1ccccc1)N1[C@@H]2CC[C@@H]1CN(c1ncnc3[nH]ccc13)C2 [Example 240, Phenyl-[3-(7H-pyrrolo[2,3-d]pyrimidin-4-yl)-3,8-diaza-bicyclo[3.2.1]oct-8-yl]-methanone] |
| 100 to 500 nM | < 100 nM | 100 to 500 nM | > 500 nM | Cc1ccsc1C(=O)N1[C@@H]2CC[C@@H]1CN(c1ncnc3[nH]ccc13)C2 [Example 243, (3-Methyl-thiophen-2-yl)-[3-(7H-pyrrolo[2,3-d]pyrimidin-4-yl)-3,8-diaza-bicyclo[3.2.1]oct-8-yl]-methanone] |
| < 100 nM | 100 to 500 nM | 100 to 500 nM | > 500 nM | O=C(c1ccc(OC(F)(F)F)cc1)N1[C@@H]2CC[C@@H]1CN(c1ncnc3[nH]ccc13)C2 [Example 251, [3-(7H-Pyrrolo[2,3-d]pyrimidin-4-yl)-3,8-diaza-bicyclo[3.2.1]oct-8-yl]-(4-trifluoromethoxy-phenyl)-methanone] |
